From publication PMC4012458, “Action of Clathrodin and Analogues on Voltage-Gated Sodium Channels” (Marine Drugs, 2014) come the findings set out here.

The target in one experiment is T1, NaV1.5 (Homo sapiens, UniProt Q14524).
T1 construct: gene SCN5A
The experiment can be described thus: two-electrode voltage clamp in Xenopus oocytes, […] inhibition at […]. Format: cell-based. For orientation: Two-electrode voltage clamp is typically applied to oocytes expressing channels or transporters.

Another experiment concerns the target T2, NaV1.4 (Rattus norvegicus, UniProt P15390).
T2 construct: gene Scn4a
The experiment can be described thus: two-electrode voltage clamp in Xenopus oocytes, concentration-response; also QPatch patch clamp. Format: cell-based.

T2 sequence (P15390 whole entry): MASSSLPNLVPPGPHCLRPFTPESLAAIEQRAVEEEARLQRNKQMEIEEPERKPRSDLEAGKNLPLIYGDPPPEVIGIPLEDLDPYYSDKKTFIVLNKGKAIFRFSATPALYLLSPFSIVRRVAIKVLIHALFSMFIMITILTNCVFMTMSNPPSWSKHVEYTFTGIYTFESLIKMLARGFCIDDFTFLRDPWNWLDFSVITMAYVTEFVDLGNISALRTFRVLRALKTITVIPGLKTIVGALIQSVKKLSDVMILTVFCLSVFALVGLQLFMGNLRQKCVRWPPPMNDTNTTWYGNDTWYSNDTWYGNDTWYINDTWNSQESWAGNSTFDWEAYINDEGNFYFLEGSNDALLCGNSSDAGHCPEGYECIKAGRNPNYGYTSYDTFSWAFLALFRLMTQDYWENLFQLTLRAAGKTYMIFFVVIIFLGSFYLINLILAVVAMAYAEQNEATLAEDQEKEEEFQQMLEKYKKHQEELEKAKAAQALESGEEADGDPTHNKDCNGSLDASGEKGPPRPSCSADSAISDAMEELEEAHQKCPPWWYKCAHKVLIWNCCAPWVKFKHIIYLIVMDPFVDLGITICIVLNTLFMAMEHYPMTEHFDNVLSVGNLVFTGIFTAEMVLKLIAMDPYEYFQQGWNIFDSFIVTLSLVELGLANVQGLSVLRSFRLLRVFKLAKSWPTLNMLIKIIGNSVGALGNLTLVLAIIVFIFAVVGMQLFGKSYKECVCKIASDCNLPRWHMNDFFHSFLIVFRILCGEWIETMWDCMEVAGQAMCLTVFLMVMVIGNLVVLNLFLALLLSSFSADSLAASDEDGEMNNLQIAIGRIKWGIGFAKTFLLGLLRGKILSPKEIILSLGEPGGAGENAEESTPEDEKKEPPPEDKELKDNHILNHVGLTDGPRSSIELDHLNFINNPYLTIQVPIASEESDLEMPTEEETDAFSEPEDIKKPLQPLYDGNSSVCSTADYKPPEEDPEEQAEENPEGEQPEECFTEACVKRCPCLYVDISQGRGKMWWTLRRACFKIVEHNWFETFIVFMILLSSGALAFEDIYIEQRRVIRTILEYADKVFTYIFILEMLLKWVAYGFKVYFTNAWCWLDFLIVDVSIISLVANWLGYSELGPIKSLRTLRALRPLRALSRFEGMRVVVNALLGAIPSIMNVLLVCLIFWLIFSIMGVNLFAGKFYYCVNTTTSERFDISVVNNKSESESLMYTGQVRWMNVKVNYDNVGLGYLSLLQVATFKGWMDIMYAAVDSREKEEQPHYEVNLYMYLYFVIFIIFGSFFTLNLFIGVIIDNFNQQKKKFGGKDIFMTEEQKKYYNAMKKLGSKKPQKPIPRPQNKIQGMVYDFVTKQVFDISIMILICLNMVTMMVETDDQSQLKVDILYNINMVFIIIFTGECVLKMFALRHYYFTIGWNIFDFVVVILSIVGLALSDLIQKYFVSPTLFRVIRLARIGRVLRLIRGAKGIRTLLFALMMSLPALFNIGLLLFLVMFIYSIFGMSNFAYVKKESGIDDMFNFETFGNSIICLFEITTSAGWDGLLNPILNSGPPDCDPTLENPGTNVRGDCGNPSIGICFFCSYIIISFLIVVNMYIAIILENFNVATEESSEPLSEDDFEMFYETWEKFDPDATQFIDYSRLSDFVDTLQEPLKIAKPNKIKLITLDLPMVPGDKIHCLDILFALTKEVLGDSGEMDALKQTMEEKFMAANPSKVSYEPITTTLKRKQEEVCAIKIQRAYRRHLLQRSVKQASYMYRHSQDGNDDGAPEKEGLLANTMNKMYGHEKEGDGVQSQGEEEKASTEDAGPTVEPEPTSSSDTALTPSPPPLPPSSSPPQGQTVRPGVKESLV
T1 sequence (Q14524 whole entry): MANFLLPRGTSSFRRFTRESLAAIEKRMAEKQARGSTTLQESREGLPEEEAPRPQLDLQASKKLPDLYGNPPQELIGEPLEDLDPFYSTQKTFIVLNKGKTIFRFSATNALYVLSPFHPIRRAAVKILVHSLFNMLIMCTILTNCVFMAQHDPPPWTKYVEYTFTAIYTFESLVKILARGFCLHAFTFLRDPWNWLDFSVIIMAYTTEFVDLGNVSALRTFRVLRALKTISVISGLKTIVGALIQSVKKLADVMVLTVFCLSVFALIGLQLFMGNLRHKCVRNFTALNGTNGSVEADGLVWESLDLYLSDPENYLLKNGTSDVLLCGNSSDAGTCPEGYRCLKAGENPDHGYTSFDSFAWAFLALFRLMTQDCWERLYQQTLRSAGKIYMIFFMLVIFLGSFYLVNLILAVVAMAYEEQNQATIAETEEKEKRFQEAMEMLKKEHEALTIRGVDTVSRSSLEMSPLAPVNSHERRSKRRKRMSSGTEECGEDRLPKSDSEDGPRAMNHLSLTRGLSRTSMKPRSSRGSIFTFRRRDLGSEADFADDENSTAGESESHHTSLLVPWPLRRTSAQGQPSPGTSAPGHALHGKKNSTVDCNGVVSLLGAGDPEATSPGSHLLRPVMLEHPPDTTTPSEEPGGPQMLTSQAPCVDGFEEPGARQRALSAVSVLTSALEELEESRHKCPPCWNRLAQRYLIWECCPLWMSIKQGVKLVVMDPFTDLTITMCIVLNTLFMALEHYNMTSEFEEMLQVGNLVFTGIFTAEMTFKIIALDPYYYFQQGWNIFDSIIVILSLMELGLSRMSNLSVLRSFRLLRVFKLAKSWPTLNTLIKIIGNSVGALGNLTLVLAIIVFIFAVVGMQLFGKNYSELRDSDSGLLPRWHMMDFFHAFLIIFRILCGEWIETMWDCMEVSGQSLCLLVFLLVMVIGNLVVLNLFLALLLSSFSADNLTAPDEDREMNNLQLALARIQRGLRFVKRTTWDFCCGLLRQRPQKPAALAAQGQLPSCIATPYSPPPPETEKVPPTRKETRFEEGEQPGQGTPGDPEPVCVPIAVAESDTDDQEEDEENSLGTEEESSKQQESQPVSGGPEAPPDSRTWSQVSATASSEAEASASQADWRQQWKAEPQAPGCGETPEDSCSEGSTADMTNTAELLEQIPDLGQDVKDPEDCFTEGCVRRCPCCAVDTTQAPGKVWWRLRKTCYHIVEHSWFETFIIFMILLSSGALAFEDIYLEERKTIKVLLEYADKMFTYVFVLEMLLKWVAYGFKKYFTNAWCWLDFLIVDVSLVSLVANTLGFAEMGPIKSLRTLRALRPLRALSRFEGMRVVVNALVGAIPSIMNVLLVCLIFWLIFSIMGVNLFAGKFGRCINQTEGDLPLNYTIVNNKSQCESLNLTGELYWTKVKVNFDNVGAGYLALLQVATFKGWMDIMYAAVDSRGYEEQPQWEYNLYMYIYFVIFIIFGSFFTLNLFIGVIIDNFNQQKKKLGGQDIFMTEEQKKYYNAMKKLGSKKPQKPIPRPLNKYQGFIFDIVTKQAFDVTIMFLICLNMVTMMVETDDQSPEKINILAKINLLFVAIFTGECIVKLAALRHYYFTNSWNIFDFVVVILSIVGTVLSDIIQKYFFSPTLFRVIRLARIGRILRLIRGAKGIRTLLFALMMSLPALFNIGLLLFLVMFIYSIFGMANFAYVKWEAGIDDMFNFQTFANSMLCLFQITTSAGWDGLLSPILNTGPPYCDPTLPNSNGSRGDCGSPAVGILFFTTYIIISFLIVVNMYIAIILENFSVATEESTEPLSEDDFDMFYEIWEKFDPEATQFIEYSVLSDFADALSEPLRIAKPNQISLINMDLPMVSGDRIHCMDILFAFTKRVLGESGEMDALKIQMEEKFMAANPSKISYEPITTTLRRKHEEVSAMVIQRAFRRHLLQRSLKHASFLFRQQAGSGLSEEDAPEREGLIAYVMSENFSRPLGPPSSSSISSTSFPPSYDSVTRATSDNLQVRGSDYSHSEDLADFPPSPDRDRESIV

Molecule `Nc1nc(-c2cccc(NC(=O)c3c[nH]c4ccccc34)c2)c[nH]1` [compound 9, Compound 9] yielded an inhibition at 1 µM on NaV1.5 of 19.6 ± 1.3%. On NaV1.4, this molecule gave an IC50 of 3.5 ± 0.9 µM.

The inhibition is the drop in the measured response relative to a control, in per cent. A high value points to a strong effect. By IC50 is commonly meant the midpoint of a concentration-inhibition curve. Lower therefore signals greater potency.
